Assay results taken from ChEMBL document CHEMBL1201862, “PubChem BioAssay data set” (2004).
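Cultured in 96-well plates, cells were exposed to test compound for 48 hours across five concentrations. The concentration for 50% growth inhibition is given as GI50.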 The source made the active and inactive calls. No stated cut-off is given here; in the data, active = GI50 up to about 1.1 µM and inactive = higher.

Experiments:
Experiment in all cases: NCI tumour cell line growth inhibition, 48 h
A498 = test system: A498
ACHN = test system: ACHN
DU-145 = test system: DU-145
HCC 2998 = test system: HCC 2998
K562 = test system: K562
MCF7 = test system: MCF7
MDA-MB-231 = test system: MDA-MB-231
NCI-H226 = test system: NCI-H226
OVCAR-4 = test system: OVCAR-4
SK-MEL-28 = test system: SK-MEL-28
SK-MEL-2 = test system: SK-MEL-2
SK-OV-3 = test system: SK-OV-3
SN12C = test system: SN12C
SNB-19 = test system: SNB-19
SNB-75 = test system: SNB-75
T47D = test system: T47D
TK-10 = test system: TK-10
UO-31 = test system: UO-31
786-0 = test system: 786-0
A549 = test system: A549
CAKI-1 = test system: CAKI-1
CCRF-CEM = test system: CCRF-CEM
COLO 205 = test system: COLO 205
EKVX = test system: EKVX
HCT-116 = test system: HCT-116
HCT-15 = test system: HCT-15
HOP-62 = test system: HOP-62
HOP-92 = test system: HOP-92
HT-29 = test system: HT-29
Hs-578T = test system: Hs-578T
IGROV-1 = test system: IGROV-1
KM12 = test system: KM12
LOX IMVI = test system: LOX IMVI
M14 = test system: M14
MDA-MB-435 = test system: MDA-MB-435
MDA-N = test system: MDA-N
MOLT-4 = test system: MOLT-4
Malme-3M = test system: Malme-3M
NCI-H23 = test system: NCI-H23
NCI-H460 = test system: NCI-H460
NCI-H522 = test system: NCI-H522
NCI/ADR-RES = test system: NCI/ADR-RES
OVCAR-3 = test system: OVCAR-3
OVCAR-5 = test system: OVCAR-5
OVCAR-8 = test system: OVCAR-8
PC-3 = test system: PC-3
RPMI-8226 = test system: RPMI-8226
RXF 393 = test system: RXF 393
SF-268 = test system: SF-268
SF-295 = test system: SF-295
SF-539 = test system: SF-539
SK-MEL-5 = test system: SK-MEL-5
SR = test system: SR
SW-620 = test system: SW-620
U-251 = test system: U-251
UACC-257 = test system: UACC-257
UACC-62 = test system: UACC-62
HL-60 = test system: HL-60

C=CCOC(=O)CCCCCCCCCCCCCCCOC(=O)C1=C(CCC[C@@H](C)O[Si](C)(C)C(C)(C)C)N=C(N)N2[C@H](CC3(CC/C=C\[C@H](CC)O[Si](C(C)C)(C(C)C)C(C)C)OCCO3)CC[C@@H]12
GI50 (A498): > 100 µM (inactive) | GI50 (ACHN): > 100 µM (inactive) | GI50 (DU-145): > 100 µM (inactive) | GI50 (HCC 2998): 49.3 µM (inactive) | GI50 (K562): < 0.01 µM (active) | GI50 (MCF7): 31.9 µM (inactive) | GI50 (MDA-MB-231): > 100 µM (inactive) | GI50 (NCI-H226): > 100 µM (inactive) | GI50 (OVCAR-4): > 100 µM (inactive) | GI50 (SK-MEL-28): > 100 µM (inactive) | GI50 (SK-MEL-2): > 100 µM (inactive) | GI50 (SK-OV-3): > 100 µM (inactive) | GI50 (SN12C): > 100 µM (inactive) | GI50 (SNB-19): > 100 µM (inactive) | GI50 (SNB-75): 83.8 µM (inactive) | GI50 (T47D): > 100 µM (inactive) | GI50 (TK-10): > 100 µM (inactive) | GI50 (UO-31): 63.5 µM (inactive)

CCCCc1cc2c(cc1O)CCC1C2CC[C@@]2(C)C1CC[C@@H]2O (some centres undefined)
GI50 (786-0): 22.8 µM (inactive) | GI50 (A498): 21.8 µM (inactive) | GI50 (A549): 13.5 µM (inactive) | GI50 (ACHN): 16.2 µM (inactive) | GI50 (CAKI-1): 16.6 µM (inactive) | GI50 (CCRF-CEM): 21.5 µM (inactive) | GI50 (COLO 205): 24.7 µM (inactive) | GI50 (DU-145): 18.3 µM (inactive) | GI50 (EKVX): 14.8 µM (inactive) | GI50 (HCC 2998): 19.9 µM (inactive) | GI50 (HCT-116): 14.3 µM (inactive) | GI50 (HCT-15): 23.8 µM | GI50 (HOP-62): 28.4 µM (inactive) | GI50 (HOP-92): 20 µM (inactive) | GI50 (HT-29): 23.2 µM (inactive) | GI50 (Hs-578T): 11.3 µM (inactive) | GI50 (IGROV-1): 22 µM (inactive) | GI50 (K562): 9.38 µM (inactive) | GI50 (KM12): 12.3 µM (inactive) | GI50 (LOX IMVI): 16.6 µM (inactive) | GI50 (M14): 18.9 µM (inactive) | GI50 (MCF7): 11.8 µM (inactive) | GI50 (MDA-MB-231): 29.3 µM (inactive) | GI50 (MDA-MB-435): 16.9 µM (inactive) | GI50 (MDA-N): 23.4 µM (inactive) | GI50 (MOLT-4): 11.7 µM (inactive) | GI50 (Malme-3M): 20.7 µM (inactive) | GI50 (NCI-H226): 16.9 µM (inactive) | GI50 (NCI-H23): 20.2 µM (inactive) | GI50 (NCI-H460): 21.9 µM (inactive) | GI50 (NCI-H522): 14 µM (inactive) | GI50 (NCI/ADR-RES): 18.7 µM (inactive) | GI50 (OVCAR-3): 13.7 µM (inactive) | GI50 (OVCAR-4): 20.4 µM (inactive) | GI50 (OVCAR-5): 17.7 µM (inactive) | GI50 (OVCAR-8): 15.3 µM (inactive) | GI50 (PC-3): 12.4 µM (inactive) | GI50 (RPMI-8226): 5.14 µM (inactive) | GI50 (RXF 393): 2.89 µM (inactive) | GI50 (SF-268): 29.6 µM (inactive) | GI50 (SF-295): 13.3 µM (inactive) | GI50 (SF-539): 26.2 µM (inactive) | GI50 (SK-MEL-28): 23 µM (inactive) | GI50 (SK-MEL-2): 18.4 µM (inactive) | GI50 (SK-MEL-5): 20.8 µM (inactive) | GI50 (SK-OV-3): 16.3 µM (inactive) | GI50 (SN12C): 18.7 µM (inactive) | GI50 (SNB-19): 25.5 µM (inactive) | GI50 (SNB-75): 13 µM (inactive) | GI50 (SR): 21.4 µM (inactive) | GI50 (SW-620): 20.2 µM (inactive) | GI50 (T47D): 8.97 µM (inactive) | GI50 (TK-10): 18.3 µM (inactive) | GI50 (U-251): 19.4 µM (inactive) | GI50 (UACC-257): 15.4 µM (inactive) | GI50 (UACC-62): 11.6 µM (inactive) | GI50 (UO-31): 14.5 µM (inactive)

CSCCC(NOC(=O)Cc1ccccc1)P(=O)(O)c1ccccc1 (centres undefined)
GI50 (A549): > 100 µM (inactive) | GI50 (ACHN): > 100 µM (inactive) | GI50 (CAKI-1): > 100 µM (inactive) | GI50 (CCRF-CEM): > 100 µM (inactive) | GI50 (COLO 205): > 100 µM (inactive) | GI50 (DU-145): > 100 µM (inactive) | GI50 (HCC 2998): > 100 µM (inactive) | GI50 (HCT-116): > 100 µM (inactive) | GI50 (HCT-15): > 100 µM | GI50 (HL-60): > 100 µM (inactive) | GI50 (HOP-62): > 100 µM (inactive) | GI50 (HOP-92): > 100 µM (inactive) | GI50 (HT-29): > 100 µM (inactive) | GI50 (Hs-578T): > 100 µM (inactive) | GI50 (IGROV-1): > 100 µM (inactive) | GI50 (K562): > 100 µM (inactive) | GI50 (LOX IMVI): > 100 µM (inactive) | GI50 (M14): > 100 µM (inactive) | GI50 (MCF7): > 100 µM (inactive) | GI50 (MDA-MB-231): > 100 µM (inactive) | GI50 (MDA-MB-435): > 100 µM (inactive) | GI50 (MDA-N): > 100 µM (inactive) | GI50 (MOLT-4): > 100 µM (inactive) | GI50 (NCI-H226): > 100 µM (inactive) | GI50 (NCI-H23): > 100 µM (inactive) | GI50 (NCI-H460): > 100 µM (inactive) | GI50 (NCI-H522): > 100 µM (inactive) | GI50 (NCI/ADR-RES): > 100 µM (inactive) | GI50 (OVCAR-3): > 100 µM (inactive) | GI50 (OVCAR-4): > 100 µM (inactive) | GI50 (OVCAR-5): > 100 µM (inactive) | GI50 (OVCAR-8): > 100 µM (inactive) | GI50 (PC-3): > 100 µM (inactive) | GI50 (RPMI-8226): > 100 µM (inactive) | GI50 (SF-295): > 100 µM (inactive) | GI50 (SK-MEL-28): > 100 µM (inactive) | GI50 (SK-MEL-2): > 100 µM (inactive) | GI50 (SK-MEL-5): > 100 µM (inactive) | GI50 (SK-OV-3): > 100 µM (inactive) | GI50 (SN12C): > 100 µM (inactive) | GI50 (SNB-19): > 100 µM (inactive) | GI50 (SNB-75): > 100 µM (inactive) | GI50 (SR): > 100 µM (inactive) | GI50 (SW-620): > 100 µM (inactive) | GI50 (T47D): > 100 µM (inactive) | GI50 (TK-10): > 100 µM (inactive) | GI50 (U-251): > 100 µM (inactive) | GI50 (UACC-257): > 100 µM (inactive) | GI50 (UO-31): > 100 µM (inactive)
